From ChEMBL document CHEMBL5303761, “Data for DCP probe BI-3231” (2023)

Tests used:
[1] = molecular target: Prostaglandin G/H synthase 1 (Homo sapiens) (UniProt P23219); assay: COX-1 Eurofins SafetyScreen44 (BI); settings: Compound concentration 10.0 uM
[2] = molecular target: Kappa-type opioid receptor (Homo sapiens) (UniProt P41145); assay: KAPPA(KOP)_HU Eurofins SafetyScreen44 (BI); settings: Compound concentration 10.0 uM
[3] = molecular target: 5-hydroxytryptamine receptor 2A (Homo sapiens) (UniProt P28223); assay: 5HT2AH_AGON Eurofins SafetyScreen44 (BI); settings: filed as agonist, Compound concentration 10.0 uM
[4] = molecular target: T1, 5-hydroxytryptamine receptor 3A (Homo sapiens) (UniProt P46098); assay: 5HT3/H Eurofins SafetyScreen44 (BI); settings: Compound concentration 10.0 uM
T1 sequence (whole entry): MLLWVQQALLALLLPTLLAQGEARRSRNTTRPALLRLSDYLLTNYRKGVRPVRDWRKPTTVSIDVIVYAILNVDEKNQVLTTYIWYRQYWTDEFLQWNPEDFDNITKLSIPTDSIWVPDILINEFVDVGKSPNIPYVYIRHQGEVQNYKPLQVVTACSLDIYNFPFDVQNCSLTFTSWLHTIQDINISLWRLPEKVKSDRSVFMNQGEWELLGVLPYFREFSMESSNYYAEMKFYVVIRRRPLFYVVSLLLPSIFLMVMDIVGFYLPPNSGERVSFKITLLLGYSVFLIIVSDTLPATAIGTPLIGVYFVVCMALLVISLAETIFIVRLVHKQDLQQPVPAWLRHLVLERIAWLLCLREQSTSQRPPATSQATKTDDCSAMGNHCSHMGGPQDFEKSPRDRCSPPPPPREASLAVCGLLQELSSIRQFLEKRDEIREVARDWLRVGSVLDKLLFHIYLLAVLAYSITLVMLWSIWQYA

[5] = molecular target: T2, Alpha-2A adrenergic receptor (Homo sapiens) (UniProt P08913); assay: ALPHA2A/HU Eurofins SafetyScreen44 (BI); settings: Compound concentration 10.0 uM
T2 sequence (whole entry): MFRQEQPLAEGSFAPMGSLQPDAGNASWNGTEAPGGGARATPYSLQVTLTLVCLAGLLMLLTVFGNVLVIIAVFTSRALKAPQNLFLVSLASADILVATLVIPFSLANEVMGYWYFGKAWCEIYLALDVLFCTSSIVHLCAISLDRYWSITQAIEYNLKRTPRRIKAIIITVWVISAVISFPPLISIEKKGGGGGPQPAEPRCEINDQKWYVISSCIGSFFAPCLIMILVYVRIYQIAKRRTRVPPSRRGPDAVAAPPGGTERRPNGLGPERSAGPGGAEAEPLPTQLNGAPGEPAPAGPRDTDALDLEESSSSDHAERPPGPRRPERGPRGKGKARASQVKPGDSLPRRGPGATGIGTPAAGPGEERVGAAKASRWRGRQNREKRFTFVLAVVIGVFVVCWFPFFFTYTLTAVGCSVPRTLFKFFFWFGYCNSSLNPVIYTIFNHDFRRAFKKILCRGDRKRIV

[6] = molecular target: GABA-A receptor; anion channel (Rattus norvegicus) (UniProt O09028+P15431+P18506+P18508+P19969+P20236+P23574+P23576+P28471+P28473+P30191+P62813+P63079+P63138+Q91ZM7+Q9ES14); assay: BZD/CENTR/R Eurofins SafetyScreen44 (BI); assay type: protein-complex assay; settings: Compound concentration 10.0 uM
[7] = molecular target: D(2) dopamine receptor (Homo sapiens) (UniProt P14416); assay: D2SH_AGON Eurofins SafetyScreen44 (BI); settings: filed as agonist, Compound concentration 10.0 uM
[8] = molecular target: Histamine H1 receptor (Homo sapiens) (UniProt P35367); assay: H1/PYRIL/HS Eurofins SafetyScreen44 (BI); settings: Compound concentration 10.0 uM
[9] = molecular target: T3, Muscarinic acetylcholine receptor M1 (Homo sapiens) (UniProt P11229); assay: M1/H Eurofins SafetyScreen44 (BI); settings: Compound concentration 10.0 uM
T3 sequence (whole entry): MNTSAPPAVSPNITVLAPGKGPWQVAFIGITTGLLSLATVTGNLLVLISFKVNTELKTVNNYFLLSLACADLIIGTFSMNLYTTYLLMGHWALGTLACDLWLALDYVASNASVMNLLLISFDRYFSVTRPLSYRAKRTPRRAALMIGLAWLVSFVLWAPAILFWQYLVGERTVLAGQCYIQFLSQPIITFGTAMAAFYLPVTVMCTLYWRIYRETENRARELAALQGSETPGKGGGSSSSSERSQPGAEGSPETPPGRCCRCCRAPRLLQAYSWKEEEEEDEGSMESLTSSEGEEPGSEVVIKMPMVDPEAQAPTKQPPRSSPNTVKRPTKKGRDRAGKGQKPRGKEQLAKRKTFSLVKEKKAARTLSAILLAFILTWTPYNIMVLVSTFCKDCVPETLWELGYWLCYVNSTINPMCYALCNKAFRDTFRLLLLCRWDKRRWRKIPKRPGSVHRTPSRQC

[10] = molecular target: T4, Muscarinic acetylcholine receptor M2 (Homo sapiens) (UniProt P08172); assay: M2/H Eurofins SafetyScreen44 (BI); settings: filed as antagonist, Compound concentration 10.0 uM
T4 sequence (whole entry): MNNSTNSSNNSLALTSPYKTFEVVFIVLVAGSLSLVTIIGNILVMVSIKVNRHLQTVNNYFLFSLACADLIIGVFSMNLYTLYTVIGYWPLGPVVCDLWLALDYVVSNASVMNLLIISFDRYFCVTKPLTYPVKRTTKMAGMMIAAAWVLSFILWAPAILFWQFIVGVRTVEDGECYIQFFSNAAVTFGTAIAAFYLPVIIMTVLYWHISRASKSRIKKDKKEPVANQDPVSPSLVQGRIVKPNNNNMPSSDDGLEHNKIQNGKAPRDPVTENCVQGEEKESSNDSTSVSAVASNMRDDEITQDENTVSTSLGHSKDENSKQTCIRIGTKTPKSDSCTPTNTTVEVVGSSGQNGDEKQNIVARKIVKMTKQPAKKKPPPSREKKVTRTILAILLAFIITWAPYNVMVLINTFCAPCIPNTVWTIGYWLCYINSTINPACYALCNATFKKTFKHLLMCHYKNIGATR

[11] = molecular target: Mu-type opioid receptor (Homo sapiens) (UniProt P35372); assay: MU/H Eurofins SafetyScreen44 (BI); settings: Compound concentration 10.0 uM
[12] = molecular target: 5-hydroxytryptamine receptor 1B (Homo sapiens) (UniProt P28222); settings: Compound concentration 10.0 uM
[13] = molecular target: D(4) dopamine receptor (Homo sapiens) (UniProt P21917); settings: Compound concentration 10.0 uM
[14] = molecular target: Sodium-dependent serotonin transporter (Homo sapiens) (UniProt P31645); settings: Compound concentration 10.0 uM
[15] = molecular target: Sodium-dependent noradrenaline transporter (Homo sapiens) (UniProt P23975); settings: Compound concentration 10.0 uM
[16] = molecular target: Mu-type opioid receptor (Homo sapiens) (UniProt P35372); settings: Compound concentration 10.0 uM
[17] = molecular target: Histamine H1 receptor (Homo sapiens) (UniProt P35367); settings: Compound concentration 10.0 uM
[18] = molecular target: Muscarinic acetylcholine receptor M4 (Homo sapiens) (UniProt P08173); settings: Compound concentration 10.0 uM
Rattus norvegicus = organism: Rattus norvegicus; settings: Compound concentration 10.0 uM

5-hydroxytryptamine receptor 1B (Homo sapiens), sequence (P28222 whole entry): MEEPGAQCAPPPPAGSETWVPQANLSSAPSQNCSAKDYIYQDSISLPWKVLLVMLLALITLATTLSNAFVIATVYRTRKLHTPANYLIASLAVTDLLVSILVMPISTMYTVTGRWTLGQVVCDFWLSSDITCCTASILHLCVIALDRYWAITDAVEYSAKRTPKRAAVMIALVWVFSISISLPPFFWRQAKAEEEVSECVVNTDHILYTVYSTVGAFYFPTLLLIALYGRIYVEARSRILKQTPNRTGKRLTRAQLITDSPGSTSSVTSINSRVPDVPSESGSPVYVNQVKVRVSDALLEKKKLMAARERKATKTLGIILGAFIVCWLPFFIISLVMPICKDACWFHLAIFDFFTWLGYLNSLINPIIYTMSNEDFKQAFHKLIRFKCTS
Sodium-dependent serotonin transporter (Homo sapiens), sequence (P31645 whole entry, looked up): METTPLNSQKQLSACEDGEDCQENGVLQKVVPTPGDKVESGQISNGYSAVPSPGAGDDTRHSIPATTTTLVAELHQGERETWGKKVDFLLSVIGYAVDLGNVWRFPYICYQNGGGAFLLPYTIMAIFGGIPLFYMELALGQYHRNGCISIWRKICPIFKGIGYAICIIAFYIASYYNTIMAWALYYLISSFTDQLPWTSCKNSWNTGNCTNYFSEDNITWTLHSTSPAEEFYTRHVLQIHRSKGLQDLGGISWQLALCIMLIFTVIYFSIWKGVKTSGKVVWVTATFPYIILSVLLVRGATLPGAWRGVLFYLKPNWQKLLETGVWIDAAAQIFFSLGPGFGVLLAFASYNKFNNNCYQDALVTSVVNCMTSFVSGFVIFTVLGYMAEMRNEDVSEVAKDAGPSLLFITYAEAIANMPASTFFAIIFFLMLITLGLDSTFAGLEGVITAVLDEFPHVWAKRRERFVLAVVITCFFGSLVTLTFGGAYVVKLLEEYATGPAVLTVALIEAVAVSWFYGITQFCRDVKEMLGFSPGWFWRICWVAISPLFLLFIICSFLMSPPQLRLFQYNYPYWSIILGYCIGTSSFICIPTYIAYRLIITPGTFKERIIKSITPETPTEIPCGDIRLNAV
Muscarinic acetylcholine receptor M4 (Homo sapiens), sequence (P08173 whole entry): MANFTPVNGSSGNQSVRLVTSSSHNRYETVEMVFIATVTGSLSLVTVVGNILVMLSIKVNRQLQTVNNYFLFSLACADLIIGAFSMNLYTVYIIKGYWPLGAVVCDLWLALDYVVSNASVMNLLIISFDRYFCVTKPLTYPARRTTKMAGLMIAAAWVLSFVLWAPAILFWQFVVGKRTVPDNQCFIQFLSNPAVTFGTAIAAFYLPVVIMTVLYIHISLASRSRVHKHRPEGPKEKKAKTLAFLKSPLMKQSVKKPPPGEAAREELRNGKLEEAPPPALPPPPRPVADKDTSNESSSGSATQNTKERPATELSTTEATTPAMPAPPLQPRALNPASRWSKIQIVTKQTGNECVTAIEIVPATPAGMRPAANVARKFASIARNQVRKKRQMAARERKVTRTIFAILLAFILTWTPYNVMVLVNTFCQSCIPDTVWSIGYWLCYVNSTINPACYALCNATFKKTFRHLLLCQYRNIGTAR
Histamine H1 receptor (Homo sapiens), sequence (P35367 whole entry): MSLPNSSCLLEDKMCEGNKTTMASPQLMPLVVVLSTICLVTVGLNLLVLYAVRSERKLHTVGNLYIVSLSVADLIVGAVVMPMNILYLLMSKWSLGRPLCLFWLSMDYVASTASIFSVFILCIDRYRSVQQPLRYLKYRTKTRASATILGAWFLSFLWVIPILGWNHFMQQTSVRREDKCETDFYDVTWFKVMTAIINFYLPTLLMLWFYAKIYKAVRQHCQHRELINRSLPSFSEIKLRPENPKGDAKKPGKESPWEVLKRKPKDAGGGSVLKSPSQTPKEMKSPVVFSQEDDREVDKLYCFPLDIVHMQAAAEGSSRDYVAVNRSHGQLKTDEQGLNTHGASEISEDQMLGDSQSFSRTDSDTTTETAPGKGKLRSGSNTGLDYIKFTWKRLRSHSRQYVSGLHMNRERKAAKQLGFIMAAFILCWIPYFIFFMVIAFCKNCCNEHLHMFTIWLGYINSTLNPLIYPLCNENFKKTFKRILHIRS
Sodium-dependent noradrenaline transporter (Homo sapiens), sequence (P23975 whole entry): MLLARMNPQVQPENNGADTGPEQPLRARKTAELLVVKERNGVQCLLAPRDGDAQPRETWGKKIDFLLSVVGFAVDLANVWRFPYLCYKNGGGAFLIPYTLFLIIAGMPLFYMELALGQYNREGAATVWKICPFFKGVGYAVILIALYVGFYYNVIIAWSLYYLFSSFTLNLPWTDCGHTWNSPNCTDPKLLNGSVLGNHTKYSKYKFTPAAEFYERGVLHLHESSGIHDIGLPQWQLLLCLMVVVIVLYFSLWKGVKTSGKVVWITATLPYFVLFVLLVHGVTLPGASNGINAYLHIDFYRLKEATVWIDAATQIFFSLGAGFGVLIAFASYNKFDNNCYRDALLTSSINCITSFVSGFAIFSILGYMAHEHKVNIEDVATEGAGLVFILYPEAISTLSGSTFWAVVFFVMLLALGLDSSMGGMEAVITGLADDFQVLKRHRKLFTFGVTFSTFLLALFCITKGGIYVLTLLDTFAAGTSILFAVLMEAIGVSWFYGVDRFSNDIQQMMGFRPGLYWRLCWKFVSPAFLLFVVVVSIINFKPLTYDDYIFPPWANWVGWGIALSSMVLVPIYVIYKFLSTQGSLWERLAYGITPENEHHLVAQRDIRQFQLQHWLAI
D(4) dopamine receptor (Homo sapiens), sequence (P21917 whole entry): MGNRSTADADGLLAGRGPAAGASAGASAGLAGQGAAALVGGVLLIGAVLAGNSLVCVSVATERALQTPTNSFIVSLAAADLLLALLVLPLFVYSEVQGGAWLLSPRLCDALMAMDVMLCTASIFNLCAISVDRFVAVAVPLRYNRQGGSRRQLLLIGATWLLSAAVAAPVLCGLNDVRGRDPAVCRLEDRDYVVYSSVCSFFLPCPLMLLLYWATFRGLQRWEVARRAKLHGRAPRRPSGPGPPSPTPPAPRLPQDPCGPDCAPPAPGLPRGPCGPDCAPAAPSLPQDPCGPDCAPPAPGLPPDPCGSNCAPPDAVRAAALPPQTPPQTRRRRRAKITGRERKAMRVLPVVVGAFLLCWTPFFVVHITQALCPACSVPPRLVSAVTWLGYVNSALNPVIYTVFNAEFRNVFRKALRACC
Mu-type opioid receptor (Homo sapiens), sequence (P35372 whole entry): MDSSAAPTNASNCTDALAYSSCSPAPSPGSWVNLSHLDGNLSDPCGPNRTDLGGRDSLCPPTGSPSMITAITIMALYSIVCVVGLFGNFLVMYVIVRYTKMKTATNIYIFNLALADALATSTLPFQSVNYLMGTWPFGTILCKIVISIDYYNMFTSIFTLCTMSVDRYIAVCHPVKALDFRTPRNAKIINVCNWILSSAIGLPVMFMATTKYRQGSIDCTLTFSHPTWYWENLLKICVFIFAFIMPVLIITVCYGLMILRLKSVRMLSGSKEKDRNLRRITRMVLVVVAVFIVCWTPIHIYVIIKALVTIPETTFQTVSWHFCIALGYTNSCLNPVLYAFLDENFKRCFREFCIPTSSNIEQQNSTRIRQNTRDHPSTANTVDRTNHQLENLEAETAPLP
Prostaglandin G/H synthase 1 (Homo sapiens), sequence (P23219 whole entry): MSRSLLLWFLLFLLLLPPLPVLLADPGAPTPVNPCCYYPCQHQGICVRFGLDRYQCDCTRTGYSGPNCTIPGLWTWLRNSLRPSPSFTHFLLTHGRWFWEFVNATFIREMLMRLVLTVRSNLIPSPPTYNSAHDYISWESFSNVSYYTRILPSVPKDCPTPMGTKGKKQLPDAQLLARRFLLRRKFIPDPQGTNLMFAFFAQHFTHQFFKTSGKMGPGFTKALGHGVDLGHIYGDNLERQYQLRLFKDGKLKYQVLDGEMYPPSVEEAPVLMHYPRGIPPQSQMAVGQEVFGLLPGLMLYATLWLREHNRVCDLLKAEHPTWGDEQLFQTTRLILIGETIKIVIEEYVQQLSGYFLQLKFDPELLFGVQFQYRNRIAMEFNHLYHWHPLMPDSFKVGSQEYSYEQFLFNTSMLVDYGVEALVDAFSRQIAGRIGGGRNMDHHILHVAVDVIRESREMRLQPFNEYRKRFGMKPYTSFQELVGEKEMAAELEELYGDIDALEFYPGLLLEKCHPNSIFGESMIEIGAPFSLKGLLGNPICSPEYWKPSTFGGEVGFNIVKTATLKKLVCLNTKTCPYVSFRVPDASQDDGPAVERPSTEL
5-hydroxytryptamine receptor 2A (Homo sapiens), sequence (P28223 whole entry): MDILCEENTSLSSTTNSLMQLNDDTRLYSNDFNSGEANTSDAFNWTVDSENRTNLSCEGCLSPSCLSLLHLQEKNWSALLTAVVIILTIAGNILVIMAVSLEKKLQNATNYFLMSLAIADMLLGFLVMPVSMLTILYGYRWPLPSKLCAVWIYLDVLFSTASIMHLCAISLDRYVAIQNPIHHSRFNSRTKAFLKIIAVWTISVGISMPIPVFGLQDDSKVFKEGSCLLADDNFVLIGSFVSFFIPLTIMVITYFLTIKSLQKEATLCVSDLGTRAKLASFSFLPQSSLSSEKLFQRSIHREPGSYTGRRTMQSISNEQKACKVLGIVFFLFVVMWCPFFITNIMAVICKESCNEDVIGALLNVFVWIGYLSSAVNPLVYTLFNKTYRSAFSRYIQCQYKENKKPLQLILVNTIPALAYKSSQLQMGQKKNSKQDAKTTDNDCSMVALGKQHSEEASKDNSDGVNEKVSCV
D(2) dopamine receptor (Homo sapiens), sequence (P14416 whole entry): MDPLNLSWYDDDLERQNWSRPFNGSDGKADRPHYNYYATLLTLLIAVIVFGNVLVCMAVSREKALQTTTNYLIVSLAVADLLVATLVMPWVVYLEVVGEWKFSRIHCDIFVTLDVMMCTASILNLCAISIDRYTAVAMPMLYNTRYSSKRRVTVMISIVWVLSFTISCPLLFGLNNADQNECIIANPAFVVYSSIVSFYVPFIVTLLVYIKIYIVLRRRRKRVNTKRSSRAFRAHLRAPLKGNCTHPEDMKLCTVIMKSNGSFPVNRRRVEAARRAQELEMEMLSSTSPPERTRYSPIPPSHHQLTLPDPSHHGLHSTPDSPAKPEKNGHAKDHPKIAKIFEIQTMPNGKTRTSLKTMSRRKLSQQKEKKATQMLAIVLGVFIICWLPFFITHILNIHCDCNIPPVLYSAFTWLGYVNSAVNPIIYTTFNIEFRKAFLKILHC

Row | inhibition [12] [%] | inhibition [13] [%] | inhibition [14] [%] | inhibition [15] [%] | inhibition [16] [%] | inhibition [17] [%] | inhibition [18] [%] | inhibition (Rattus norvegicus) [%] | Structure (SMILES) | residual activity [1] [%] | residual activity [2] [%] | residual activity [3] [%] | residual activity [4] [%] | residual activity [5] [%] | residual activity [6] [%] | residual activity [7] [%] | residual activity [8] [%] | residual activity [9] [%] | residual activity [10] [%] | residual activity [11] [%]
1 | 8.52 | 2.36 | -7.45 | 3.37 | 12.9 | -3.42 | 0.65 | -8.73 | CCn1c(=O)c(C)cn(Cc2nnc(-c3ccc(F)c(OC)c3F)s2)c1=O | 88 | 110 | 101 | 98 | 87 | 94 | 92 | 100 | 100 | 113 | 102
2 | 16 | 9.62 | -3.65 | 3.4 | -0.02 | 8.66 | -2.34 | 23 | CCn1c(=O)c(C)cn(Cc2nnc(-c3ccc(F)c(O)c3F)s2)c1=O | 76 | 94 | 84 | 106 | 113 | 115 | 84 | 84 | 99 | 106 | 87
